The source of these data is patent US5401853A, “Thiadiazole derivatives for the treatment of depressive states” (Laboratorio Farmaceutico C.T. S.r.l., priority 1992, dated 1995).

The test system of one series is mice. The experiment in a line: Dispair test (Porsolt) in mice. Particulars: for immobility duration: 1 hour before test. Type of series: in vivo, Swiss strain male mice (CD-1 Charles River). As to the method:
This behaviouristic test conceived by Porsolt (1977 --Nature, 266 730-732 is generally utilized to evaluate the antidepressant activity.
Swiss strain male mice of average weight of 30 g (CD -1 Charles River) casually assigned to the different treatment groups are used.
The method consists in placing the animal in a plexiglas cylinder 25 cm high and with a diameter of 9 cm filled with water at 24° C. up to a level of 6 cm.
The test lasts 6 minutes and the time in which the animal lets itself float without reacting is measured starting from the 2nd minute (immobility duration).
The animals ape treated by intraperitoneal route (injection volume 10 ml/kg) 1 hour before the test.
The evaluation is carried out in blind. The statistical analysis of the results is carried out where it is possible by means of the T-Student test, otherwise the non parametric test of Mann Whitney is used.

A short description of series [1]: Acute toxicity (LD50) in mice. As to conditions: mouse, in vivo, read-out: LD50 (DL50).
The test system of another series is rats. The experiment in a line: Social Interaction test in rats (anxiolythic activity). The class given is in vivo, Sprague-Dawley male rats. Particulars: for Social Interaction increase (%): 1 hour before test, vs controls. From the text:
The behaviouristic Social Interaction test found by FILE was used. (Animal models of psychiatric disorders, vol. 1 Karger, Basel, pp 151-166).
It consists in an experimental procedure permitting to evaluate the influence of the pharmacological treatment on the spontaneous behaviour of the rat, by means of the social component which in this animal is particularly accentuated.
Sprague-Dawley male rats weighing about 250 g are used. After a normal stabling period (2 weeks), the animal are isolated in smaller cages (267×207×140 mm surface 410 cm^2) for a period of about 5 days.
Then the rats are gathered into couples, avoiding that weight difference between the two animals overcomes 10 g and that the couple components had not previously stabled together.
The couple thus gathered are assigned to the respective treatment group.
Diazepam was utilized as the positive control drug: 1,25 mg/kg are intraperitoneally administered 30' before carrying out the test.
The compounds to be tested are administered 1 hour before carrying out the test.
The box utilized [55×55×30 cm (height)] for the animal observation is white, completely washable and provided with a floor split up into 25 squares.
A 100 Watt lamp is placed upon the box at 50 cm from the floor. The test is realized in a remote room whose only light source is represented by the lamp lighting the box.
The evaluation is carried out in blind. The animals are observed indirectly, by means of a mirror suitably placed.
Evaluated parameters: time passed in Social Interaction (sniffing pursuit, grooming, boxing etc.).
The box is systematically cleaned up after every test.
The results are expressed as a function of a percentage increase of Social Interaction of the treated animals in comparison with the controls.

The next series can be described thus: Solubility in solvents. Type of series: physicochemical.

By LD50 is commonly meant the dose at which mortality reaches 50%.

Where two headings read alike, the source gives them in different places.

As for `Nc1nnc(SCc2ccccc2)s1` [B16, 2-amino-5-benzylmercapto-1,3,4-thiadiazole], the immobility duration with mice (1 mg/kg i.p.) worked out at 197 ± 22; with mice (5 mg/kg i.p.), 171 ± 23; in the series on mice (10 mg/kg i.p.) it was 132 ± 45; in the series with mice (15 mg/kg i.p.), 186 ± 14; with mice (20 mg/kg i.p.) it was 199 ± 16. The inhibition in vivo at 5 mg/kg in the series on mice (Mus musculus, ip, 1 h, 5 mg/kg i.p., vs control (dosage 0), read-out: immobility duration < % (decrease)) was found to be 16%. Besides, the inhibition in vivo at 10 mg/kg in the series with mice (Mus musculus, ip, 1 h, 10 mg/kg i.p., vs control (dosage 0), read-out: immobility duration < % (decrease)) stood at 35%. Also, in the series on mice (Mus musculus, ip, 1 h, 15 mg/kg i.p., vs control (dosage 0), read-out: immobility duration < % (decrease)), the inhibition in vivo at 15 mg/kg amounted to 8%. Besides, the minimal effective dose in the series with mice (Mus musculus, ip, 1 h, Dispair test, i.p., read-out: active dosage) fell in the range of 5 to 10 mg/kg. The LD50 is over 600 mg/kg in series [1] (ip) and over 600 mg/kg in series [1] (po, per os). In addition, the “Social Interaction increase (%)” value in the series on rats (0.5 mg/kg) stood at 40%; in the series with rats (1 mg/kg), 67%; in the series with rats (2.5 mg/kg), 94%; in the series on rats (5 mg/kg), 51%. The “shape of dose-response curve, Social Interaction” value in the series on rats (0.5-5 mg/kg) is “Gaussian shape”. Moreover, the “solubility in alcohols, chloroform, ethyl acetate, acetone” value in the series “Solubility in solvents” is “soluble”. Further, the “solubility in ether and water” value in “Solubility in solvents” was “insoluble”.
